From PubChem BioAssay (NCI) come the findings set out here.

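Growth conditions: 96-well plates. Treatment: test compound, 48 hours, 5 concentrations. Analysis: linear interpolation between bracketing concentrations; unreached endpoints set to highest concentration. Definition used: TGI = concentration required for complete inhibition of growth.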

What all share (assay): NCI tumour cell line growth inhibition, 48 h
The subject of assay [1] is ACHN renal.
Assay [2] relates to CAKI-1 renal.
Assay [3] has as its system CCRF-CEM leukemia.
For assay [4], the system named is EKVX NSCLC.
Assay [5] concerns HCT-15 colon.
The subject of assay [6] is K-562 leukemia.
The test system of assay [7] is LOX IMVI melanoma.
In assay [8] the test system is MDA-MB-231 breast.
Assay [9] deals with NCI/ADR-RES ovarian.
The subject of assay [10] is OVCAR-3 ovarian.
Assay [11] relates to OVCAR-5 ovarian.
Assay [12] relates to OVCAR-8 ovarian.
Assay [13] relates to RXF 393 renal.
Assay [14] deals with SF-539 CNS.
Assay [15] relates to SK-MEL-2 melanoma.
Assay [16] relates to SK-OV-3 ovarian.
In assay [17] the test system is T-47D breast.
In assay [18] the test system is TK-10 renal.
The test system of assay [19] is UO-31 renal.
The test system of assay [20] is HOP-92 NSCLC.

For `CCOC(=O)N1CCN(C(=O)Nc2cccc3ccccc23)CC1`, the TGI in assay [1], in assay [2], in assay [3], in assay [4], in [5] and in assay [6] was over 10 µM in each case. The TGI in assay [7], in assay [8], in assay [9], in [10], in assay [11] and in [12] was over 10 µM in each case. Further, the TGI in [13], in assay [14], in assay [15], in assay [16], in assay [17] and in [18] was over 10 µM each time. Further, the TGI in assay [19] was over 10 µM.

For `Cc1ccc(NC(=O)CC(=O)n2nc(C)c(N=Nc3ccc(S(=O)(=O)CCOS(=O)(=O)O)cc3)c2C)cc1`, the TGI in [1], in [3], in [4], in [6], in assay [7] and in [8] was over 100 µM throughout. Moreover, the TGI in [9], in assay [10], in [11], in assay [12], in assay [13] and in assay [14] was over 100 µM throughout. The TGI in assay [15], in assay [16], in assay [17], in assay [18] and in assay [19] was over 100 µM each time.

As for `CC1CC/C(=C\c2ccc(N(C)C)cc2)C(=O)/C1=C/c1ccc(N(C)C)cc1` (centres undefined), the TGI in assay [1], in assay [2], in assay [3], in assay [4], in [5] and in [6] was over 100 µM in each case. For the same compound, the TGI in assay [7], in assay [8], in assay [9], in assay [10], in [11] and in [12] was over 100 µM throughout. Besides, the TGI in [14], in [15], in assay [16], in [17], in assay [18] and in [19] was over 100 µM each time.

As to `COC(=O)c1cc(-c2c[nH]cc2C(=O)OCc2ccccc2)cn1S(=O)(=O)c1ccc(C)cc1`, the TGI in [1], in [2], in assay [3], in assay [4], in [5] and in assay [6] was over 100 µM throughout. Besides, the TGI in assay [7], in [8], in [9], in assay [10], in [11] and in [12] was over 100 µM throughout. Moreover, the TGI in assay [13], in assay [14], in assay [15], in [16], in [17] and in [18] was over 100 µM throughout. The compound also had a TGI in [19] of over 100 µM.

Consider `CN(/N=C/c1cccs1)c1ccc([N+](=O)[O-])cc1[N+](=O)[O-]`, for which the TGI in assay [1], in [2], in [3], in [4], in assay [5] and in assay [6] was over 100 µM each time. For the same compound, the TGI in assay [8], in assay [9], in [10], in assay [12], in assay [13] and in assay [14] was over 100 µM throughout. Further, the TGI in assay [16], in [17], in assay [18] and in assay [19] was over 100 µM throughout.

For `O=Cc1cc2c(o1)C(=O)c1ccccc1C2=O`, the TGI in assay [1] is 7.96 µM; in assay [2], 9.54 µM; in assay [3], 6.4 µM; in assay [4] it was 7.46 µM; in assay [7], 0.679 µM; in [8] it was over 30.2 µM. Further, the TGI in assay [9] came out at 5.54 µM; in [10], 2.11 µM; in assay [11], 3.25 µM; in assay [12], 2.72 µM; in [13], 2.99 µM; in assay [14] it was 2.25 µM. For the same compound, the TGI in assay [15] is 4.2 µM; in [16] it was 9.57 µM; in [17], 3.94 µM; in [18] it was 8.52 µM; in [19] it was 4.6 µM.

Turning to `CN(C)C(=C1c2cc([N+](=O)[O-])ccc2-c2ccc([N+](=O)[O-])cc21)N(C)C`, the TGI in assay [1], in assay [2], in assay [3], in assay [4], in assay [5] and in [6] was over 100 µM throughout. Besides, the TGI in assay [8], in assay [9], in assay [10], in assay [11], in [12] and in [13] was over 100 µM each time. The TGI in [15], in assay [16], in [17], in [18] and in [19] was over 100 µM each time.

Consider `C=CC12CN(C)C3C4COC(CC41)C1(C(=O)Nc4ccccc41)C32` (centres undefined), for which the TGI in assay [2] was over 200 µM; in assay [3], over 195 µM; in assay [4] it was over 200 µM; in [5] it was over 200 µM; in assay [20], over 200 µM; in assay [6] it was over 200 µM. The TGI in assay [7], in assay [9], in assay [10], in assay [11], in assay [12] and in [13] was over 200 µM each time. The TGI in assay [14] was over 200 µM; in [15] it was over 200 µM; in assay [16], over 82.4 µM; in assay [19], over 200 µM.
